Source: patent publication US20090280160A1, “PHENYLEPHRINE PHARMACEUTICAL FORMULATIONS AND COMPOSITIONS FOR TRANSMUCOSAL ABSORPTION” (Schering-Plough Healthcare Products, Inc., priority 2007, published 2009)
Entries after “also recorded” stand apart in the source; their conditions may differ.

Assays:
[1] = cited from earlier work
[2] = target: T1, α2b adrenoreceptor (Homo sapiens, UniProt P18089); test: [35S]-GTPγS binding exchange, α2b CHO cell membranes; assay type: biochemical; conditions: for stimulation of [35S]-GTPγS binding, α2b (in words): CHO cell membranes
T1 construct: expressed in transfected cells; host or cells: CHO (Chinese hamster ovary) cells, membranes
T1 sequence (P18089 1-450): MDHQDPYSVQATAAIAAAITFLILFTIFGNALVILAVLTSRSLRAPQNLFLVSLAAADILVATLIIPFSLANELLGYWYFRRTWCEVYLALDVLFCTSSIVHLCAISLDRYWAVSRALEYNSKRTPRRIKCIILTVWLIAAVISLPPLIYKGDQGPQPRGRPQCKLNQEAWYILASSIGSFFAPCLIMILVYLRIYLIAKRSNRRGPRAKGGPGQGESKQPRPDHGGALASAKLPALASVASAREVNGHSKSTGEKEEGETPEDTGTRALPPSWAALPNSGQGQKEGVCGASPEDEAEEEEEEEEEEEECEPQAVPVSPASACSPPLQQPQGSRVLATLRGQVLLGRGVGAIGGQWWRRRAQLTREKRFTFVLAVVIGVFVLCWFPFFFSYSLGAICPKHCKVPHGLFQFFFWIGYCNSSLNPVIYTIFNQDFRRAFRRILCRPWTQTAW
Protocol: (§1) The affinity and activity of phenylephrine metabolites were evaluated in human recombinant α1 and α2 adrenoreceptor binding and activity assays. […] Affinity of the metabolites was determined by receptor binding assays. Functional activity of the metabolites was assessed using an [^35S]-GTPγS binding exchange assay for the α2 receptor subtypes and a cell-based calcium flux response for the α1 receptor subtypes.
(§2) Assay buffer was 75 mM Tris-HCl pH 7.4, 12.5 mM MgCl2, 2 mM EDTA and 1 μM GDP. Plates were counted on a Packard TopCount. The percent increase over basal binding of [^35S]-GTPγS, a measure of efficacy, was calculated as follows: 100×[[mean total sample cpm−basal cpm]÷by basal cpm]. Basal cpm was defined as the mean cpm in the absence of agonist compound minus the mean non-specific binding cpm.
(§3) Each metabolite was evaluated in each assay in at least 2 independent experiments and a representative assay of each metabolite/assay combination is shown.

[3] = target: T2, α1b adrenoreceptor (Homo sapiens, UniProt P35368); test: Cellular calcium flux (FLIPR), α1b expressing CHO cells; assay type: cell-based; conditions: α1b expressing CHO cells
T2 construct: expressed in transfected cells
T2 sequence (P35368 1-520): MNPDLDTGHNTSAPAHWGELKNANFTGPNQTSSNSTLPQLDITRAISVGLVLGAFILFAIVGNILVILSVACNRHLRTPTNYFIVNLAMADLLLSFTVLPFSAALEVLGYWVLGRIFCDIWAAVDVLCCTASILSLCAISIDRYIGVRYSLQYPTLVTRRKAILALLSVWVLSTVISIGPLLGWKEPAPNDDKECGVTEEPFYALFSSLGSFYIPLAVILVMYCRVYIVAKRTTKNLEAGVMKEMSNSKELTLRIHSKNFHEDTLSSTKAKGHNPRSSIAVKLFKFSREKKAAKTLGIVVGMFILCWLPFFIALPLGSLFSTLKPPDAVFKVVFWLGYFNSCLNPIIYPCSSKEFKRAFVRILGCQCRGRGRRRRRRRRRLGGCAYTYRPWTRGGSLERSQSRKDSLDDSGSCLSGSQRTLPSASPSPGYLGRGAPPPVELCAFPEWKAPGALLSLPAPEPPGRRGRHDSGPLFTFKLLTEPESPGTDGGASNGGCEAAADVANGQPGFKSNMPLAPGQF
Protocol: as §1
(§4) Intracellular calcium levels were measured using a fluorometric imaging plate reader (FLIPR). Cells expressing α1 adrenoreceptors were cultured overnight at 15,000 cells/well in 96 well black-wall clear bottom plates (Packard). Adherent cells were loaded for 1 hour at 37° C. using the FLIPR Calcium Plus Assay Kit (Molecular Probes, Eugene, Oreg.), which included 2.5 mM probenecid (Sigma). Compounds (at 10 mM in 100% DMSO) were diluted in diluting buffer (HBSS, 20 mM HEPES, 2.5 mM probenecid, 0.5% BSA, pH 7.4). A titration of norepinephrine was included in every experiment and norepinephrine (at 1 μM) was also used as a plate standard on each assay plate. Cells were maintained at 37° C. throughout all calcium measurements. Fluorescence data was collected at 1 second interval for 60 seconds, followed by collection at 2 second intervals for 30 seconds. Background fluorescence was quantitated in wells containing cells with no additions and was subtracted from all experimental samples. All conditions were done in quadruplicate. Non-linear regression analysis using GraphPad Prism was used to calculate EC50 values.
as §3

[4] = target: T3, α1a adrenoreceptor (Homo sapiens, UniProt P35348); test: Competition binding, [3H]-prazosin, α1a CHO cell membranes; conditions: for inhibition of 3H-prazosin binding, α1a (in words): CHO cell membranes
T3 construct: expressed in transfected cells
T3 sequence (P35348 1-466): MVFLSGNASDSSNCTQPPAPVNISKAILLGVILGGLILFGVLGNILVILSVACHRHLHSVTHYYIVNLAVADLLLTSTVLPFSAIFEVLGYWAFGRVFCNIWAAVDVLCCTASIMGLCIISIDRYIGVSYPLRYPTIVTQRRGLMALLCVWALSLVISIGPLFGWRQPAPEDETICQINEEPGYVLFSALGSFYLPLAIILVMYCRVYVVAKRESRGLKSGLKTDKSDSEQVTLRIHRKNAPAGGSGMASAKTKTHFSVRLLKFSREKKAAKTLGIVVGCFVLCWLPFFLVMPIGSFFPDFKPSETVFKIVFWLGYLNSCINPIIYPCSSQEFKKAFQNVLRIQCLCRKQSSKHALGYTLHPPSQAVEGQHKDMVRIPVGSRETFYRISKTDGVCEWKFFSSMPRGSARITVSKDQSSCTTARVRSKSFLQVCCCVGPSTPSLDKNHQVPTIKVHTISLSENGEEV

[5] = target: T2, α1b adrenoreceptor; test: Competition binding, [3H]-prazosin, α1b CHO cell membranes; conditions: for inhibition of 3H-prazosin binding, α1b (in words): CHO cell membranes
Protocol: as §1
(§5) Competition Binding Assays
(§6) Competition binding assays for the α2 adrenoreceptors were performed using 20 μg membrane protein per well in binding buffer (75 mM Tris-HCl pH 7.4, 12.5 mM MgCl2, […] EDTA, 0.2% bovine serum albumin). […] Binding was terminated by rapid filtration through GF/C unifilter plates, presoaked with 0.3% polyethylenimine, with five washes with 0.5 ml cold 50 mM Tris-HCl ph 7.4, using a Packard Filtermate Harvester. After drying, bound radioactivity was determined by liquid scintillation counting (Packard TopCount) with Microscint 20, 50 μl/well. Binding data were analyzed using GraphPad Prism.
as §3

[6] = target: T1, α2b adrenoreceptor; test: Competition binding, [3H]-UK14304, α2b CHO cell membranes; conditions: for inhibition of [3H]-UK14304 binding, α2b (in words): CHO cell membranes
Protocol: as §1, §5, §6, §3

[7] = target: T4, α2c adrenoreceptor (Homo sapiens, UniProt P18825); test: [35S]-GTPγS binding exchange, α2c CHO cell membranes; assay type: biochemical; conditions: for stimulation of [35S]-GTPγS binding, α2c (in words): CHO cell membranes
T4 construct: expressed in transfected cells; host or cells: CHO (Chinese hamster ovary) cells, membranes
T4 sequence (P18825 1-462): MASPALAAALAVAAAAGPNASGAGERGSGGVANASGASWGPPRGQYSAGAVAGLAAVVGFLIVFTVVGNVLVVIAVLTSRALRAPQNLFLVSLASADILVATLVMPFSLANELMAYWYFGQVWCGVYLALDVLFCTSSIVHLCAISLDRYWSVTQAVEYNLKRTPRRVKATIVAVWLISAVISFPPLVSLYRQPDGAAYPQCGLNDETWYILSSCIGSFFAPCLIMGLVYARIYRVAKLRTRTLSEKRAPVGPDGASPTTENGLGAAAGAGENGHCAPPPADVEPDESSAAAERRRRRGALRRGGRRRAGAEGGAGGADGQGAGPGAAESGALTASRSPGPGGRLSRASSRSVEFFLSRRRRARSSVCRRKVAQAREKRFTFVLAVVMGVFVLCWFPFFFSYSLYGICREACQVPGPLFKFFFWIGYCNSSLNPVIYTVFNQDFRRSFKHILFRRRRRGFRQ
Protocol: as §1, §2, §3

[8] = target: T3, α1a adrenoreceptor; test: Cellular calcium flux (FLIPR), α1a expressing CHO cells; assay type: cell-based; conditions: α1a expressing CHO cells
Protocol: as §1, §4, §3

[9] = target: T4, α2c adrenoreceptor; test: Competition binding, [3H]-UK14304, α2c CHO cell membranes; conditions: for inhibition of [3H]-UK14304 binding, α2c (in words): CHO cell membranes
Protocol: as §1, §5, §6, §3

[10] = in vivo; cited from earlier work
[11] = oral, approximately 24 mg of PE, healthy volunteers; cited from earlier work
[12] = listed as phenylephrine sulfate
[13] = at 100 μM (highest concentration evaluated)

| Molecule | stimulation of [35S]-GTPγS binding, α2b (in words) [2] | increase in intracellular calcium, α1b calcium assay (in words) [3] | inhibition of 3H-prazosin binding, α1a (in words) [4] | inhibition of 3H-prazosin binding, α1b (in words) [5] | inhibition of [3H]-UK14304 binding, α2b (in words) [6] | stimulation of [35S]-GTPγS binding, α2c (in words) [7] | increase in intracellular calcium, α1a calcium assay (in words) [8] | inhibition of [3H]-UK14304 binding, α2c (in words) [9] | half-life (t1/2) / elimination half-life [10] | further results |
| --- | --- | --- | --- | --- | --- | --- | --- | --- | --- | --- |
| C[C@@H]1CN([C@H]2CC[C@](C#N)(c3ccc(F)cc3)CC2)CC[C@]1(C(=O)O)c1ccccc1 [Levocabastine] |  |  |  |  |  |  |  |  |  | duration of action ([1]; in vivo): 16 to 24 h |
| CNC[C@H](O)c1cccc(O)c1 [PE, (R)-(−)-phenylephrine, reference compound] | stimulates [^35S]-GTPγS binding | increases intracellular calcium | inhibits binding | inhibits binding | inhibits [^3H]-UK14304 binding | stimulates [^35S]-GTPγS binding | increases intracellular calcium | inhibits [^3H]-UK14304 binding |  |  |
| Clc1ccc2c(c1)CCc1cccnc1C2=C1CCNCC1 [desloratadine] |  |  |  |  |  |  |  |  | 15 to 19 h |  |
| CCOC(=O)N1CCC(=C2c3ccc(Cl)cc3CCc3cccnc32)CC1 [loratadine] |  |  |  |  |  |  |  |  |  | time to begin to elicit antihistaminic effect ([1]; exemplary conventional formulation): 1 to 3 h |
| (R)-PE sulfate | No activity | minimal activity; also recorded: A very low level of activity | No appreciable binding | No appreciable binding | no appreciable binding | No activity | no and A very low level of activity | but not; also recorded: no appreciable binding |  | activity in α2b [35S]-GTPγS assay (in words) ([2]; highest concentration, 100 μM): no activity; increase in intracellular calcium, α1b calcium assay (in words) [3, 12]: induces minimal intracellular calcium increases; metabolite excreted in the urine [11]: 47 % of dose; binding / affinity, α1a receptor (in words) ([4]; concentrations up to 100 μM): no affinity; Ki ([5]; [3H]-prazosin, read-out: Ki, a1b Binding (class symbol)): > 100 µM; binding / affinity, α1b receptor (in words) ([5]; concentrations up to 100 μM): no affinity; Ki ([6]; [3H]-UK14304, read-out: Ki, a2b Binding (class symbol)): > 100 µM; binding / affinity, α2b receptor (in words) [6, 13]: very minimal binding; also recorded: no affinity; activity in α2c [35S]-GTPγS assay (in words) ([7]; highest concentration, 100 μM): no activity; increase in intracellular calcium, α1a calcium assay (in words) [8, 12]: induces minimal intracellular calcium increases; Ki ([9]; [3H]-UK14304, read-out: Ki, a2c Binding (class symbol)): > 100 µM; binding / affinity, α2c receptor (in words) [9, 13]: very minimal binding; also recorded: no affinity |
| CN1CCC(=C2c3ccccc3CCc3cccnc32)CC1 [Azatadine] |  |  |  |  |  |  |  |  | 9 to 12 h |  |
